In patent US10385024B2, “Compounds and methods for inhibiting NHE-mediated antiport in the treatment of disorders associated with fluid retention or salt overload and gastrointestinal tract disorders” (Ardelyx, Inc., priority 2012, dated 2019):

How the values were obtained:
Format in all cases: in vivo, Sprague-Dawley rats
Plasma PK = conditions: Sprague-Dawley; rat plasma, oral gavage, nominal dose 30 mg/kg, mean of n=3, sampling 0.5-4 h
Procedure: Sprague-Dawley rats (n=3) were dosed with test compounds by oral gavage. Blood was collected at 0.5, 1, 2 and 4 h via retro-orbital bleeds and processed to plasma using K2EDTA as an anticoagulant. Plasma samples were treated with acetonitrile containing an internal standard and precipitated proteins were removed by centrifugation. Supernatants were analyzed by LC-MS/MS and compound concentrations were determined by interpolation from a calibration curve prepared in plasma. Accurate recovery of quality control samples were confirmed to accept each analytical run.

[1] = test system: absorption of sodium from the intestinal lumen; assay: Inhibition of intestinal sodium absorption (urinary sodium and fecal form); conditions: rat; for response vs control in vivo at 3 mg/kg: 3 mg/kg oral gavage, urine 16 h post-dose, asterisks = significance vs vehicle (*P<0.05, **P<0.01, ***P<0.001), read-out: uNa (% of vehicle); for FFS: fecal form score, scale 1 (normal pellet) to 5 (liquid fecal streams), group average, 3 mg/kg oral, 16 h post-dose, vehicle = 1
How it was run: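 Sprague-Dawley rats (8 weeks, n=6) dosed by oral gavage with compound or water vehicle (10 mL/kg) in late afternoon, then housed in metabolic cages. Over 16 h, urinary sodium measured by ion chromatography and expressed as % of vehicle mean; fecal form scored 1–5, averaged from two observations.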

[2] = Pharmacokinetic evaluation in bile; conditions: bile duct cannulated rats, oral gavage, nominal dose 30 mg/kg, bile collected over 24 h, mean of n=3
Procedure: Bile duct cannulated (BDC) Sprague-Dawley rats were dosed with test compounds by oral gavage and a single aliquot of bile was collected via cannula over the 24 h following dosing. Bile samples were treated with acetonitrile and precipitated proteins were removed by centrifugation. Some compounds required liquid-liquid extraction using MTBE. After centrifugation, samples were diluted as appropriate in mobile phase and analyzed by LC-MS/MS. The concentrations of compounds in bile were determined by interpolation from a standard calibration curve prepared in rat bile from untreated BDC rats. Accurate recovery of quality control samples was confirmed to accept each analytical run. Concentration in bile is reported in nM and represents the mean result from n=3 rats.

CN1Cc2c(Cl)cc(Cl)cc2[C@H](c2cccc(S(=O)(=O)NCCOCCOCCNC(=O)CCC(N)(CCC(=O)NCCOCCOCCNS(=O)(=O)c3cccc([C@@H]4CN(C)Cc5c(Cl)cc(Cl)cc54)c3)CCC(=O)NCCOCCOCCNS(=O)(=O)c3cccc([C@@H]4CN(C)Cc5c(Cl)cc(Cl)cc54)c3)c2)C1 [Example 2, 4-amino-N^1,N^7-bis(2-(2-(2-(3-((S)-6,8-dichloro-2-methyl-1,2,3,4-tetrahydroisoquinolin-4-yl)phenylsulfonamido)ethoxy)ethoxy)ethyl)-4-(3-(2-(2-(2-(3-((S)-6,8-dichloro-2-methyl-1,2,3,4-tetrahydroisoquinolin-4-yl)phenylsulfonamido)ethoxy)ethoxy)ethylamino)-3-oxopropyl)heptanediamide]
AUC (Plasma PK): < 12 ng·h/mL | Cmax (Plasma PK): < 4 ng/mL | response vs control in vivo at 3 mg/kg [1]: < 35% | Concentration in Bile [2]: 4 nM

CN1Cc2c(Cl)cc(Cl)cc2[C@H](c2cccc(S(=O)(=O)NCCOCCOCCNC(=O)CCC(CCC(=O)NCCOCCOCCNS(=O)(=O)c3cccc([C@@H]4CN(C)Cc5c(Cl)cc(Cl)cc54)c3)(CCC(=O)NCCOCCOCCNS(=O)(=O)c3cccc([C@@H]4CN(C)Cc5c(Cl)cc(Cl)cc54)c3)NC(=O)NCCS(=O)(=O)O)c2)C1 [Example 3]
response vs control in vivo at 3 mg/kg [1]: < 35% | Concentration in Bile [2]: 10 nM

CN1Cc2c(Cl)cc(Cl)cc2[C@H](c2cccc(S(=O)(=O)NCCOCCOCCNC(=O)CCC(CCC(=O)NCCOCCOCCNS(=O)(=O)c3cccc([C@@H]4CN(C)Cc5c(Cl)cc(Cl)cc54)c3)(CCC(=O)NCCOCCOCCNS(=O)(=O)c3cccc([C@@H]4CN(C)Cc5c(Cl)cc(Cl)cc54)c3)N(C)C)c2)C1 [Example 4, N^1,N^7-bis(2-(2-(2-(3-((S)-6,8-dichloro-2-methyl-1,2,3,4-tetrahydroisoquinolin-4-yl)phenylsulfonamido)ethoxy)ethoxy)ethyl)-4-(3-(2-(2-(2-(3-((S)-6,8-dichloro-2-methyl-1,2,3,4-tetrahydroisoquinolin-4-yl)phenylsulfonamido)ethoxy)ethoxy)ethylamino)-3-oxopropyl)-4-(dimethylamino)heptanediamide]
AUC (Plasma PK): < 13 ng·h/mL | Cmax (Plasma PK): < 5 ng/mL | FFS [1]: 2 | response vs control in vivo at 3 mg/kg [1]: < 35% | Concentration in Bile [2]: 45 nM

CN1Cc2c(Cl)cc(Cl)cc2[C@H](c2cccc(S(=O)(=O)NCCOCCOCCNC(=O)CCC(CCC(=O)NCCOCCOCCNS(=O)(=O)c3cccc([C@@H]4CN(C)Cc5c(Cl)cc(Cl)cc54)c3)(CCC(=O)NCCOCCOCCNS(=O)(=O)c3cccc([C@@H]4CN(C)Cc5c(Cl)cc(Cl)cc54)c3)NC(=O)COCC(=O)O)c2)C1 [Example 6, 1-(3-((S)-6,8-dichloro-2-methyl-1,2,3,4-tetrahydroisoquinolin-4-yl)phenylsulfonamido)-13,13-bis(3-(2-(2-(2-(3-((S)-6,8-dichloro-2-methyl-1,2,3,4-tetrahydroisoquinolin-4-yl)phenylsulfonamido)ethoxy)ethoxy)ethylamino)-3-oxopropyl)-10,15-dioxo-3,6,17-trioxa-9,14-diazanonadecan-19-oic Acid]
response vs control in vivo at 3 mg/kg [1]: < 35% | Concentration in Bile [2]: 21 nM

CN1Cc2c(Cl)cc(Cl)cc2[C@H](c2cccc(S(=O)(=O)NCCOCCOCCNC(=O)CCC(CCC(=O)NCCOCCOCCNS(=O)(=O)c3cccc([C@@H]4CN(C)Cc5c(Cl)cc(Cl)cc54)c3)(CCC(=O)NCCOCCOCCNS(=O)(=O)c3cccc([C@@H]4CN(C)Cc5c(Cl)cc(Cl)cc54)c3)NC(=O)NC(CO)(CO)CO)c2)C1 [Example 11, N^1,N^7-bis(2-(2-(2-(3-((S)-6,8-dichloro-2-methyl-1,2,3,4-tetrahydroisoquinolin-4-yl)phenylsulfonamido)ethoxy)ethoxy)ethyl)-4-(3-(2-(2-(2-(3-((S)-6,8-dichloro-2-methyl-1,2,3,4-tetrahydroisoquinolin-4-yl)phenylsulfonamido)ethoxy)ethoxy)ethylamino)-3-oxopropyl)-4-(3-(1,3-dihydroxy-2-(hydroxymethyl)propan-2-yl)ureido)heptanediamide]
response vs control in vivo at 3 mg/kg [1]: 35 to 75%

CN(C)CC(=O)NC(CCC(=O)NCCOCCOCCNS(=O)(=O)c1cccc([C@@H]2CN(C)Cc3c(Cl)cc(Cl)cc32)c1)(CCC(=O)NCCOCCOCCNS(=O)(=O)c1cccc([C@@H]2CN(C)Cc3c(Cl)cc(Cl)cc32)c1)CCC(=O)NCCOCCOCCNS(=O)(=O)c1cccc([C@@H]2CN(C)Cc3c(Cl)cc(Cl)cc32)c1 [Example 14, N1,N7-bis(2-(2-(2-(3-((S)-6,8-dichloro-2-methyl-1,2,3,4-tetrahydroisoquinolin-4-yl)phenylsulfonamido)ethoxy)ethoxy)ethyl)-4-(3-(2-(2-(2-(3-((S)-6,8-dichloro-2-methyl-1,2,3,4-tetrahydroisoquinolin-4-yl)phenylsulfonamido)ethoxy)ethoxy)ethylamino)-3-oxopropyl)-4-(2-(dimethylamino)acetamido)heptanediamide]
response vs control in vivo at 3 mg/kg [1]: < 35% | Concentration in Bile [2]: 28 nM

CN1Cc2c(Cl)cc(Cl)cc2[C@H](c2cccc(S(=O)(=O)NCCOCCOCCNC(=O)CCC(CCC(=O)NCCOCCOCCNS(=O)(=O)c3cccc([C@@H]4CN(C)Cc5c(Cl)cc(Cl)cc54)c3)(CCC(=O)NCCOCCOCCNS(=O)(=O)c3cccc([C@@H]4CN(C)Cc5c(Cl)cc(Cl)cc54)c3)NC(=O)NCCN3CCOCC3)c2)C1 [Example 17, N^1,N^7-bis(2-(2-(2-(3-((S)-6,8-dichloro-2-methyl-1,2,3,4-tetrahydroisoquinolin-4-yl)phenylsulfonamido)ethoxy)ethoxy)ethyl)-4-(3-(2-(2-(2-(3-((S)-6,8-dichloro-2-methyl-1,2,3,4-tetrahydroisoquinolin-4-yl)phenylsulfonamido)ethoxy)ethoxy)ethylamino)-3-oxopropyl)-4-(3-(2-morpholinoethyl)ureido)heptanediamide]
response vs control in vivo at 3 mg/kg [1]: < 35%

CN1Cc2c(Cl)cc(Cl)cc2[C@H](c2cccc(S(=O)(=O)NCCOCCOCCNC(=O)CCC(CCC(=O)NCCOCCOCCNS(=O)(=O)c3cccc([C@@H]4CN(C)Cc5c(Cl)cc(Cl)cc54)c3)(CCC(=O)NCCOCCOCCNS(=O)(=O)c3cccc([C@@H]4CN(C)Cc5c(Cl)cc(Cl)cc54)c3)NC(=O)CCCC(=O)O)c2)C1 [Example 36]
response vs control in vivo at 3 mg/kg [1]: < 35% | Concentration in Bile [2]: 17 nM

CN1Cc2c(Cl)cc(Cl)cc2[C@H](c2cccc(S(=O)(=O)NCCOCCOCCNC(=O)CCC(CCC(=O)NCCOCCOCCNS(=O)(=O)c3cccc([C@@H]4CN(C)Cc5c(Cl)cc(Cl)cc54)c3)(CCC(=O)NCCOCCOCCNS(=O)(=O)c3cccc([C@@H]4CN(C)Cc5c(Cl)cc(Cl)cc54)c3)NC(=O)CCC(=O)O)c2)C1 [Example 40]
response vs control in vivo at 3 mg/kg [1]: < 35% | Concentration in Bile [2]: 23 nM

CN1Cc2c(Cl)cc(Cl)cc2[C@H](c2cccc(S(=O)(=O)NCCOCCOCCNC(=O)NCCCN(CCCNC(=O)NCCOCCOCCNS(=O)(=O)c3cccc([C@@H]4CN(C)Cc5c(Cl)cc(Cl)cc54)c3)CCCNC(=O)NCCOCCOCCNS(=O)(=O)c3cccc([C@@H]4CN(C)Cc5c(Cl)cc(Cl)cc54)c3)c2)C1 [Example 43, (S)—N,N′-(15-(1-(3-((S)-6,8-dichloro-2-methyl-1,2,3,4-tetrahydroisoquinolin-4-yl)phenylsulfonamido)-10-oxo-3,6-dioxa-9,11-diazatetradecan-14-yl)-10,20-dioxo-3,6,24,27-tetraoxa-9,11,15,19,21-pentaazanonacosane-1,29-diyl)bis(3-((S)-6,8-dichloro-2-methyl-1,2,3,4-tetrahydroisoquinolin-4-yl)benzenesulfonamide)]
response vs control in vivo at 3 mg/kg [1]: 35 to 75% | Concentration in Bile [2]: 6 nM

CN1Cc2c(Cl)cc(Cl)cc2[C@H](c2cccc(S(=O)(=O)NCCOCCOCCN(C)C(=O)NCCCN(CCCNC(=O)N(C)CCOCCOCCNS(=O)(=O)c3cccc([C@@H]4CN(C)Cc5c(Cl)cc(Cl)cc54)c3)CCCNC(=O)N(C)CCOCCOCCNS(=O)(=O)c3cccc([C@@H]4CN(C)Cc5c(Cl)cc(Cl)cc54)c3)c2)C1 [Example 55]
FFS [1]: 2 | response vs control in vivo at 3 mg/kg [1]: 35 to 75%

CN1Cc2c(Cl)cc(Cl)cc2[C@H](c2cccc(S(=O)(=O)NCCOCCOCCNC(=O)NCCCC(N)(CCCNC(=O)NCCOCCOCCNS(=O)(=O)c3cccc([C@@H]4CN(C)Cc5c(Cl)cc(Cl)cc54)c3)CCCNC(=O)NCCOCCOCCNS(=O)(=O)c3cccc([C@@H]4CN(C)Cc5c(Cl)cc(Cl)cc54)c3)c2)C1 [Example 62]
response vs control in vivo at 3 mg/kg [1]: 35 to 75% | Concentration in Bile [2]: 7 nM

CN1Cc2c(Cl)cc(Cl)cc2[C@H](c2cccc(S(=O)(=O)NCCOCCOCCNC(=O)NCCCC(CCCNC(=O)NCCOCCOCCNS(=O)(=O)c3cccc([C@@H]4CN(C)Cc5c(Cl)cc(Cl)cc54)c3)(CCCNC(=O)NCCOCCOCCNS(=O)(=O)c3cccc([C@@H]4CN(C)Cc5c(Cl)cc(Cl)cc54)c3)NC(=O)NC[C@H](O)[C@@H](O)[C@H](O)[C@H](O)CO)c2)C1 [Example 65]
response vs control in vivo at 3 mg/kg [1]: 35 to 75%
